Results on 12 compounds are retold here after patent US20240409585A1, “MACROCYCLIC IMMUNOMODULATORS” (priority 2021, published 2024).

Where two headings read alike, the source gives them in different places. Numbered stars: 1 amine (or outer) side, 2 acyl side, 3 side chain; on linkers, the order of the positions; unused ones are H or OH. Bridge positions count the residues as written; N and C are the ends. Square brackets hold non-standard residues; d marks the D form. Peptide text beside a SMILES is read from it. * marks the point of attachment. Bip(4'-COOH) = N[C@@H](Cc1ccc(-c2ccc(C(=O)O)cc2)cc1)C(=O)O; Bip(4'-NHAc) = CC(=O)Nc1ccc(-c2ccc(C[C@H](N)C(=O)O)cc2)cc1; X31 = N=C(N)Nc1ccc(-c2ccc(C[C@H](N[*:1])C(=O)[*:2])cc2)cc1; Phe(3-CH2NH2) = O=C([C@H](Cc1cccc(CN[*:3])c1)N[*:1])[*:2]; Phe(3-CF3) = N[C@@H](Cc1cccc(C(F)(F)F)c1)C(=O)O; Ala(morpholin-4-yl) = N[C@@H](CN1CCOCC1)C(=O)O; Phe(4-CONH2) = NC(=O)c1ccc(C[C@H](N)C(=O)O)cc1; Phe(4-COOH) = N[C@@H](Cc1ccc(C(=O)O)cc1)C(=O)O; X5 = CS(=O)(=O)NC(=O)C[C@H](N[*:1])C(=O)[*:2]; Bip = N[C@@H](Cc1ccc(-c2ccccc2)cc1)C(=O)O; Phe(3-Me) = Cc1cccc(C[C@H](N)C(=O)O)c1; Abu(3S-NH2) = C[C@H](N)[C@H](N)C(=O)O; Val(3-OH) = CC(C)(O)[C@H](N)C(=O)O; Aad = N[C@@H](CCCC(=O)O)C(=O)O; Cha = N[C@@H](CC1CCCCC1)C(=O)O; aThr = C[C@H](O)[C@H](N)C(=O)O; dDab = NCC[C@@H](N)C(=O)O; Carboxymethyl = O=C(O)C*; NMeA = CN[C@@H](C)C(=O)O; Orn = NCCC[C@H](N)C(=O)O; Dab = NCC[C@H](N)C(=O)O; Dap = NC[C@H](N)C(=O)O; X9 = O=C(CCF)*

The target in the assay is T1, Alexa fluor-647 labeled human PD-L1-Ig binding to Jurkat cell line over-expressing human PD-1 (Homo sapiens, UniProt Q15116).
T1 construct: expressed in transfected cells; host or cells: Jurkat
T1 sequence (Q15116 25-288): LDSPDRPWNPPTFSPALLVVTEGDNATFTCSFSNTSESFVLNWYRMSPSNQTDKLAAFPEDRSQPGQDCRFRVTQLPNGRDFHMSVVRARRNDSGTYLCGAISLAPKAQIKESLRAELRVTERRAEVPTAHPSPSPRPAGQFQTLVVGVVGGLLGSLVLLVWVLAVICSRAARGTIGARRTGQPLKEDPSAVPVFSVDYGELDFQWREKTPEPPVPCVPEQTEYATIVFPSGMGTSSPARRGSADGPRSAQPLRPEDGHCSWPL
The assay is described as follows: Jurkat-PD-1 Cell Binding High-Content Screening Assay (CBA): Method 3 (Alexa fluor-647 labeled PD-L1-Ig). As to conditions: Jurkat-PD-1 cells, Alexa fluor-647 labeled PD-L1-Ig 177 nM. The procedure, abridged:
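Jurkat cells over-expressing human PD-1 in RPMI/10% FCS were preincubated 2 h at 37 °C with compound, then exposed 1 h to Alexa fluor-647 labeled human PD-L1-Ig (177 nM final). Cells fixed in 4% paraformaldehyde with Hoechst 33342 and binding quantified by high-content imaging.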

[1] abbreviates: head μM, read-out: CBA Method 3 μM.

Take `Cc1cccc(C[C@@H]2NC(=O)[C@H](CC(=O)O)NC(=O)[C@H](Cc3ccc(C(=O)O)cc3)NC(=O)[C@H](CN3CCOCC3)NC(=O)CSC[C@@H](C(=O)N[C@@H](CCN)C(N)=O)NC(=O)[C@H](CCC(N)=O)NC(=O)[C@H](C(C)C)NC(=O)[C@H](CC3CCCCC3)NC(=O)[C@H](CCN)NC(=O)[C@@H](CC(C)C)NC(=O)[C@H](C)N(C)C(=O)[C@H](Cc3ccc(C(=O)O)cc3)NC(=O)[C@H](Cc3ccc(-c4ccccc4)cc3)NC(=O)[C@H](Cc3ccc(C(=O)O)cc3)NC2=O)c1` [Example 5260] ({CH2CO}-[Ala(morpholin-4-yl)][Phe(4-COOH)]D[Phe(3-Me)][Phe(4-COOH)][Bip][Phe(4-COOH)][NMeA][dL][Dab][Cha]VQC[Dab]-NH2; thioether N-14): under setting [1], the IC50 worked out at 0.09 µM. On the same count and under the same terms, the value for `Cc1cccc(C[C@@H]2NC(=O)[C@H](CC(=O)O)NC(=O)[C@H](Cc3ccc(-c4ccc(C(=O)O)cc4)cc3)NC(=O)[C@H](CN3CCOCC3)NC(=O)CSC[C@@H](C(=O)N[C@@H](CCN)C(N)=O)NC(=O)[C@H](CO)NC(=O)[C@H](C(C)(C)O)NC(=O)[C@H](CC3CCCCC3)NC(=O)[C@H](Cc3cnc[nH]3)NC(=O)[C@@H](CC(C)C)NC(=O)[C@H](C)N(C)C(=O)[C@H](Cc3ccc(C(=O)O)cc3)NC(=O)[C@H](Cc3ccc(-c4ccccc4)cc3)NC(=O)[C@H](Cc3ccc(-c4ccc(C(=O)O)cc4)cc3)NC2=O)c1` [Example 5122] ({CH2CO}-[Ala(morpholin-4-yl)][Bip(4'-COOH)]D[Phe(3-Me)][Bip(4'-COOH)][Bip][Phe(4-COOH)][NMeA][dL]H[Cha][Val(3-OH)]SC[Dab]-NH2; thioether N-14) was 0.11 µM. As for `CC(C)C[C@H]1NC(=O)[C@H](C)N(C)C(=O)[C@H](Cc2ccc(-c3ccc(NC(=N)N)cc3)cc2)NC(=O)[C@H](Cc2ccc(-c3ccccc3)cc2)NC(=O)[C@H](Cc2ccc(OCC(=O)O)cc2)NC(=O)[C@H](Cc2cccc(C(F)(F)F)c2)NC(=O)[C@H](CC(=O)O)NC(=O)[C@H](Cc2ccc(C(=O)O)cc2)NC(=O)[C@H]([C@H](C)N)NC(=O)CSC[C@@H](C(=O)N[C@H](CCN)C(N)=O)NC(=O)[C@H](CO)NC(=O)[C@H]([C@H](C)O)NC(=O)[C@H](CC2CCCCC2)NC(=O)[C@H](CCN)NC1=O` [Example 5231] ({CH2CO}-[Abu(3S-NH2)][Phe(4-COOH)]D[Phe(3-CF3)]Y(Carboxymethyl)[Bip][X31][NMeA][dL][Dab][Cha][aThr]SC[dDab]-NH2; thioether N-14), under setting [1], the IC50 stood at 0.14 µM.

Consider `Cc1cccc(C[C@@H]2NC(=O)[C@H](CC(=O)O)NC(=O)[C@H](Cc3ccc(OCC(=O)O)cc3)NC(=O)[C@H](Cc3cnc[nH]3)NC(=O)CSC[C@@H](C(=O)N[C@@H](CCN)C(N)=O)NC(=O)[C@H](CCCN)NC(=O)[C@H](C(C)C)NC(=O)[C@H](CC3CCCCC3)NC(=O)[C@H](CCN)NC(=O)[C@@H](CC(C)C)NC(=O)[C@H](C)N(C)C(=O)[C@H](CCC(N)=O)NC(=O)[C@H](Cc3ccc(-c4ccccc4)cc3)NC(=O)[C@H](Cc3ccc(C(=O)O)cc3)NC2=O)c1` [Example 5274] ({CH2CO}-HY(Carboxymethyl)D[Phe(3-Me)][Phe(4-COOH)][Bip]Q[NMeA][dL][Dab][Cha]V[Orn]C[Dab]-NH2; thioether N-14), for which, where the note is “nM, read-out: CBA Method 3”, the IC50 is 0.006 µM.

For the compound `CC(=O)Nc1ccc(-c2ccc(C[C@@H]3NC(=O)[C@H](Cc4cccc(C(F)(F)F)c4)NC(=O)[C@H](CC(=O)NS(C)(=O)=O)NC(=O)[C@H](Cc4ccc(C(=O)O)cc4)NC(=O)[C@H]([C@H](C)N)NC(=O)CSC[C@@H](C(=O)N[C@@H](CCN)C(N)=O)NC(=O)[C@H](CCC(N)=O)NC(=O)[C@H](C(C)C)NC(=O)[C@H](CC4CCCCC4)NC(=O)[C@H](CCN)NC(=O)[C@@H](CC(C)C)NC(=O)[C@H](C)N(C)C(=O)[C@H](Cc4ccc(C(N)=O)cc4)NC(=O)[C@H](Cc4ccc(-c5ccccc5)cc4)NC3=O)cc2)cc1` [Example 5099] ({CH2CO}-[Abu(3S-NH2)][Phe(4-COOH)][X5][Phe(3-CF3)][Bip(4'-NHAc)][Bip][Phe(4-CONH2)][NMeA][dL][Dab][Cha]VQC[Dab]-NH2; thioether N-14), the IC50 under setting [1] is 0.65 µM. In the case of `CC(C)C[C@@H]1NC(=O)[C@H](Cc2c[nH]c3ccccc23)NC(=O)[C@H](CC(=O)O)NC(=O)[C@H](Cc2ccc(C(=O)O)cc2)NC(=O)[C@H](Cc2ccc(OCC(=O)O)cc2)NC(=O)CSC[C@@H](C(=O)N[C@@H](CCN)C(N)=O)NC(=O)[C@H](C(C)C)NC(=O)[C@H]([C@@H](C)O)NC(=O)[C@H](CC2CCCCC2)NC(=O)[C@H](CCN)NC(=O)[C@@H](CC(C)C)NC(=O)[C@H](C)N(C)C(=O)[C@H](C(C)C)NC(=O)[C@H](Cc2ccc(-c3ccccc3)cc2)NC1=O` [Example 5141] ({CH2CO}-Y(Carboxymethyl)[Phe(4-COOH)]DWL[Bip]V[NMeA][dL][Dab][Cha]TVC[Dab]-NH2; thioether N-14), the IC50 under setting [1] is 0.02 µM. `Cc1cccc(C[C@@H]2NC(=O)[C@H](CC(=O)O)NC(=O)[C@H](Cc3ccc(OCC(=O)O)cc3)NC(=O)[C@H](Cc3cccc(CN)c3)NC(=O)CSC[C@@H](C(=O)N[C@@H](CCN)C(N)=O)NC(=O)[C@H](CCCN)NC(=O)[C@H](C(C)C)NC(=O)[C@H](CC3CCCCC3)NC(=O)[C@H](CCN)NC(=O)[C@@H](CC(C)C)NC(=O)[C@H](C)N(C)C(=O)[C@H](CCC(N)=O)NC(=O)[C@H](Cc3ccc(-c4ccccc4)cc3)NC(=O)[C@H](Cc3ccc(C(=O)O)cc3)NC2=O)c1` [Example 5176] ({CH2CO}-[Phe(3-CH2NH2)]Y(Carboxymethyl)D[Phe(3-Me)][Phe(4-COOH)][Bip]Q[NMeA][dL][Dab][Cha]V[Orn]C[Dab]-NH2; thioether N-14): under setting [1], the IC50 worked out at 0.01 µM. For `Cc1cccc(C[C@@H]2NC(=O)[C@H](CC(=O)O)NC(=O)[C@H](Cc3ccc(-c4ccc(C(=O)O)cc4)cc3)NC(=O)[C@H](CN3CCOCC3)NC(=O)CSC[C@@H](C(=O)N[C@@H](CCN)C(N)=O)NC(=O)[C@H](CCC(=O)O)NC(=O)[C@H](C(C)C)NC(=O)[C@H](CC(C)C)NC(=O)[C@H](CC(N)=O)NC(=O)[C@@H](CC(C)C)NC(=O)[C@H](C)N(C)C(=O)[C@H](C(C)C)NC(=O)[C@H](Cc3ccc(-c4ccccc4)cc3)NC(=O)[C@H](CC(C)C)NC2=O)c1` [Example 5125] ({CH2CO}-[Ala(morpholin-4-yl)][Bip(4'-COOH)]D[Phe(3-Me)]L[Bip]V[NMeA][dL]NLVEC[Dab]-NH2; thioether N-14), the IC50 (nM, read-out: CBA Method 3) was found to be 0.0094 µM.

Regarding `Cc1cccc(C[C@@H]2NC(=O)[C@H](CC(=O)O)NC(=O)[C@H](Cc3ccc(C(=O)O)cc3)NC(=O)[C@H](CC3CCCCC3)NC(=O)CSC[C@@H](C(=O)N[C@@H](CCN)C(N)=O)NC(=O)[C@H](CCC(=O)O)NC(=O)[C@H](C(C)C)NC(=O)[C@H](CC3CCCCC3)NC(=O)[C@H](CCN)NC(=O)[C@@H](CC(C)C)NC(=O)[C@H](C)N(C)C(=O)[C@H](Cc3ccc(C(=O)O)cc3)NC(=O)[C@H](Cc3ccc(-c4ccccc4)cc3)NC(=O)[C@H](Cc3ccc(C(=O)O)cc3)NC2=O)c1` [Example 5196] ({CH2CO}-[Cha][Phe(4-COOH)]D[Phe(3-Me)][Phe(4-COOH)][Bip][Phe(4-COOH)][NMeA][dL][Dab][Cha]VEC[Dab]-NH2; thioether N-14), the IC50 (nM, read-out: CBA Method 3) came out at 0.0072 µM.

Turning to `CC(C)C[C@H]1NC(=O)[C@H](C)N(C)C(=O)[C@H](Cc2ccc(C(=O)O)cc2)NC(=O)[C@H](Cc2ccc(-c3ccccc3)cc2)NC(=O)[C@H](Cc2ccc(C(=O)O)cc2)NC(=O)[C@H](Cc2cccc(C(F)(F)F)c2)NC(=O)[C@H](CC(=O)O)NC(=O)[C@H](Cc2ccc(C(=O)O)cc2)NC(=O)[C@H](CN2CCOCC2)NC(=O)CSC[C@@H](C(=O)N[C@@H](CCN)C(N)=O)NC(=O)[C@H](CNC(=O)CCF)NC(=O)[C@H](C(C)C)NC(=O)[C@H](CC2CCCCC2)NC(=O)[C@H](CCN)NC1=O` [Example 5233] ({CH2CO}-[Ala(morpholin-4-yl)][Phe(4-COOH)]D[Phe(3-CF3)][Phe(4-COOH)][Bip][Phe(4-COOH)][NMeA][dL][Dab][Cha]V[Dap](X9)C[Dab]-NH2; thioether N-14), under setting [1], the IC50 worked out at 0.02 µM. Turning to `CC(=O)Nc1ccc(-c2ccc(C[C@@H]3NC(=O)[C@H](Cc4cccc(C)c4)NC(=O)[C@H](CC(=O)O)NC(=O)[C@H](Cc4ccc(C(=O)O)cc4)NC(=O)[C@H](CN4CCOCC4)NC(=O)CSC[C@@H](C(=O)N[C@@H](CCN)C(N)=O)NC(=O)[C@H](CCCC(N)=O)NC(=O)[C@H](C(C)C)NC(=O)[C@H](CC4CCCCC4)NC(=O)[C@H](CCN)NC(=O)[C@@H](CC(C)C)NC(=O)[C@H](C)N(C)C(=O)[C@H](Cc4ccc(C(=O)O)cc4)NC(=O)[C@H](Cc4ccc(-c5ccccc5)cc4)NC3=O)cc2)cc1` [Example 5257] ({CH2CO}-[Ala(morpholin-4-yl)][Phe(4-COOH)]D[Phe(3-Me)][Bip(4'-NHAc)][Bip][Phe(4-COOH)][NMeA][dL][Dab][Cha]V[Aad](NH2)C[Dab]-NH2; thioether N-14), the IC50 under setting [1] amounted to 0.03 µM.

`CC(=O)Nc1ccc(-c2ccc(C[C@@H]3NC(=O)[C@H](Cc4cccc(C(F)(F)F)c4)NC(=O)[C@H](CC(=O)O)NC(=O)[C@H](Cc4ccc(C(=O)O)cc4)NC(=O)[C@H](Cc4ccc(OCC(=O)O)cc4)NC(=O)CSC[C@@H](C(=O)N[C@@H](CCN)C(N)=O)NC(=O)[C@H](CCC(=O)O)NC(=O)[C@H](C(C)C)NC(=O)[C@H](CC4CCCCC4)NC(=O)[C@H](CCN)NC(=O)[C@@H](CC(C)C)NC(=O)[C@H](C)N(C)C(=O)[C@H](Cc4ccc(OCC(=O)O)cc4)NC(=O)[C@H](Cc4ccc(-c5ccccc5)cc4)NC3=O)cc2)cc1` [Example 5163] ({CH2CO}-Y(Carboxymethyl)[Phe(4-COOH)]D[Phe(3-CF3)][Bip(4'-NHAc)][Bip]Y(Carboxymethyl)[NMeA][dL][Dab][Cha]VEC[Dab]-NH2; thioether N-14): the IC50 (nM, read-out: CBA Method 3) stood at 0.0025 µM.
